# Measurements taken from patent US11091441B2, “Solid state crystalline forms of a selective potassium channel modulator” (Xenon Pharmaceuticals Inc., priority 2019, dated 2021).
# Where “and” joins values, the source holds several entries; their conditions need not be identical. Equal entries are not always repeated.
# Key:
# Assay type in all cases: physicochemical
# [1] = Gravimetric Vapour Sorption (GVS), hygroscopicity, with post-GVS XRPD; conditions: for GVS uptake: 25° C.; for solid form post-GVS (XRPD): material analyzed post-GVS by XRPD
# Experimental: Approximately 10-20 mg of sample was placed into a mesh vapor sorption balance pan and loaded into an IGASorp Moisture Sorption Analyser balance by Hiden Analytical. The sample was subjected to a ramping profile from 40-90% relative humidity (RH) at 10% increments, maintaining the sample at each step until a stable weight had been achieved (98% step completion, minimum step length 30 minutes, maximum step length 60 minutes) at 25° C. After completion of the sorption cycle, the sample was dried using the same procedure to 0% RH, and finally taken back to the starting point of 40% RH, using the same parameters outlined above. Two complete cycles were performed. The weight change during the sorption/desorption cycles were plotted, allowing for the hygroscopic nature of the sample to be determined.
# [2] = Aqueous solubility of solid state forms (with post-solubility pH and XRPD of excess solid); conditions: for pH of the sample post-solubility: after aqueous solubility test; for solid form of excess solid post aqueous solubility analysis (XRPD): excess solid analyzed by XRPD
# [3] = Variable temperature XRPD (VT-XRPD): polymorphic form at each temperature
# Experimental: VT-XRPD analysis was carried out on a Philips X'Pert Pro Multipurpose diffractometer equipped with a temperature chamber. The samples were loaded onto the VT stage and scanned between 4 and 35.99 °2θ using Cu K radiation (α1 λ=1.54060 Å; α2=1.54443 Å; β=1.39225 Å; α1:α2 ratio=0.5) running in Bragg-Brentano geometry (step size 0.008 °2θ) using 40 kV/40 mA generator settings. Measurements were performed at various temperature profiles. Any holds at specific temperatures are described in the temperature profiles for individual samples.
# In another embodiment, VT-XRPD analysis of Compound A Form 11 was carried out using the heating program below in Table 11.
# [4] = Carr's index (powder flowability) of micronized material; conditions: micronized to d50≤3 μm and d90≤5 μm; for Flowability: class from Carr's index
# Experimental: A widely-used metric for how well a powder flows is Carr's index (see, for example, Wang, Y. B. and Williams, R. O. III, “Powders” in Remington: Essentials of Pharmaceutics, Felton, L., ed., London: Pharmaceutical Press, 2013 at pp. 422-423). The bulk density of a powder is measured, along with its corresponding tapped density (after allowing the powder to be compressed in a standard tap density tester, such as the Gardco JV1000, Paul N. Gardner Company, Pompano Beach, Fla., according to a standard method such as that described in Chapter 616 of the United States Pharmacopeia). Once the bulk and tapped densities of a powder have been determined experimentally, Carr's index can be calculated from the following equation: Carr's index=(tapped density−bulk density)/tapped density×100.
# [5] = Stability studies: seeded slurry trials, XRPD of the solid; conditions: substance used as seed material
# Experimental: Samples of the Compound A Form slurries and the Compound A Form 11 slurries were taken for XRPD analysis after 24 hours at 40° C., after 2 hours at 5° C. and after 24 hours at 5° C.
# [6] = 25° C., final scan after cooling from the top temperature
hygroscopicity by GVS analysis [1],solid form post-GVS (XRPD) [1],pH of the sample post-solubility [2],solid form of excess solid post aqueous solubility analysis (XRPD) [2],"VT-XRPD Polymorphic Form [3, 6]","VT-XRPD Polymorphic Form ([3]; 25° C., initial scan)",VT-XRPD Polymorphic Form ([3]; 50° C.),VT-XRPD Polymorphic Form ([3]; 100° C.),VT-XRPD Polymorphic Form ([3]; 160° C.),VT-XRPD Polymorphic Form ([3]; 165° C.),VT-XRPD Polymorphic Form ([3]; 170° C.),VT-XRPD Polymorphic Form ([3]; 180° C.),Carr's index [4],Flowability [4],GVS uptake ([1]; at 90% RH) [%],aqueous solubility [2] [µg/mL],VT-XRPD Polymorphic Form ([3]; 150° C.),VT-XRPD Polymorphic Form ([3]; 155° C.),Solid after 2 hours at 5° C. (XRPD) ([5]; slurry in 1-Propanol),Solid after 24 hours at 5° C. (XRPD) ([5]; slurry in 1-Propanol),Compound,other results
slightly hygroscopic,Compound A Form 2,6.4,Compound A Form 2,Amorphous,Form 2,Form 2,Form 2,Partially crystalline,Partially crystalline,Amorphous,Amorphous,,,,,,,,,"Cc1cc(N2CCc3cc(F)ccc3C2)cc(C)c1NC(=O)CC(C)(C)C [Compound A Form 2, N-(4-(6-fluoro-3,4-dihydroisoquinolin-2(1H)-yl)-2,6-dimethylphenyl)-3,3-dimethylbutanamide]","GVS uptake ([1]; between 0-90% RH): 0.37%; solubility ([2]; water, thermodynamic from solid): < 100 µg/mL; VT-XRPD Polymorphic Form ([3]; 180° C. (post 10 minute hold)): Amorphous"
,,,,,,,,,,,,36,very poor,,,,,,,"Cc1cc(N2CCc3cc(F)ccc3C2)cc(C)c1NC(=O)CC(C)(C)C [Compound A, N-(4-(6-fluoro-3,4-dihydroisoquinolin-2(1H)-yl)-2,6-dimethylphenyl)-3,3-dimethylbutanamide]",
slightly hygroscopic,Compound A Form 9,7.3,converted to Compound A Form 4,Amorphous,Form 9,Form 9,Form 9,,Partially crystalline,Partially crystalline,Amorphous,,,0.8,< 100,Form 9,Form change noted-Similar to Form 9,,,"Cc1cc(N2CCc3cc(F)ccc3C2)cc(C)c1NC(=O)CC(C)(C)C [Compound A Form 9, N-(4-(6-fluoro-3,4-dihydroisoquinolin-2(1H)-yl)-2,6-dimethylphenyl)-3,3-dimethylbutanamide]",

Compound,hygroscopicity by GVS analysis [1],solid form post-GVS (XRPD) [1],pH of the sample post-solubility [2],solid form of excess solid post aqueous solubility analysis (XRPD) [2],"VT-XRPD Polymorphic Form [3, 6]","VT-XRPD Polymorphic Form ([3]; 25° C., initial scan)",VT-XRPD Polymorphic Form ([3]; 50° C.),VT-XRPD Polymorphic Form ([3]; 100° C.),VT-XRPD Polymorphic Form ([3]; 160° C.),VT-XRPD Polymorphic Form ([3]; 165° C.),VT-XRPD Polymorphic Form ([3]; 170° C.),VT-XRPD Polymorphic Form ([3]; 180° C.),Carr's index [4],Flowability [4],GVS uptake ([1]; at 90% RH) [%],aqueous solubility [2] [µg/mL],VT-XRPD Polymorphic Form ([3]; 150° C.),VT-XRPD Polymorphic Form ([3]; 155° C.),Solid after 2 hours at 5° C. (XRPD) ([5]; slurry in 1-Propanol),Solid after 24 hours at 5° C. (XRPD) ([5]; slurry in 1-Propanol),other results
"Cc1cc(N2CCc3cc(F)ccc3C2)cc(C)c1NC(=O)CC(C)(C)C [Compound A Form 4, N-(4-(6-fluoro-3,4-dihydroisoquinolin-2(1H)-yl)-2,6-dimethylphenyl)-3,3-dimethylbutanamide]",slightly hygroscopic,Compound A Form 4,6.3 and 4.9,mixture of Compound A Form 4 and Compound A Form 11,Form 9,Form 4,Form 4,Form 4,,,,,8,excellent,0.4,< 100,,,Form 4,Form 4,Solid after 24 hours at 40° C. (XRPD) ([5]; slurry in 1-Propanol): Form 2 + 4; Solid after 2 hours at 5° C. (XRPD) ([5]; slurry in Ethanol): Form 4; Solid after 24 hours at 5° C. (XRPD) ([5]; slurry in Ethanol): Form 4; Solid after 24 hours at 40° C. (XRPD) ([5]; slurry in Ethanol): Form 4; VT-XRPD Polymorphic Form ([3]; 60° C.): Form 4; VT-XRPD Polymorphic Form ([3]; 70° C.): Form 4; VT-XRPD Polymorphic Form ([3]; 80° C.): Form 4; VT-XRPD Polymorphic Form ([3]; 95° C.): Form 4; VT-XRPD Polymorphic Form ([3]; 110° C. (5 minute hold)): Form 4 +; VT-XRPD Polymorphic Form ([3]; 120° C. (5 minute hold)): Form 4 +; VT-XRPD Polymorphic Form ([3]; 130° C. (5 minute hold)): Form 4 +; VT-XRPD Polymorphic Form ([3]; 140° C. (5 minute hold)): Form 9
"Cc1cc(N2CCc3cc(F)ccc3C2)cc(C)c1NC(=O)CC(C)(C)C [Compound A Form 11, N-(4-(6-fluoro-3,4-dihydroisoquinolin-2(1H)-yl)-2,6-dimethylphenyl)-3,3-dimethylbutanamide]",slightly hygroscopic,mixture of Compound A Form 4 and Compound A Form 11,,,Amorphous,Form 11,Form 11,Form 11,Partially crystalline,Partially crystalline,Partially crystalline,Partially crystalline,,,0.5,,Form change,Partially crystalline,Form 4,Form 4,Solid after 2 hours at 5° C. (XRPD) ([5]; slurry in Ethanol): Form 4; Solid after 24 hours at 5° C. (XRPD) ([5]; slurry in Ethanol): Form 4; Solid after 24 hours at 40° C. (XRPD) ([5]; slurry in Ethanol): Form 2; VT-XRPD Polymorphic Form ([3]; 190° C.): Amorphous
